Measured values as given in ChEMBL document CHEMBL1143446, “Azaflavones compared to flavones as ligands to the benzodiazepine binding site of brain GABA(A) receptors” (Bioorg Med Chem Lett, 2008).

Legend:
[1] = Displacement of [3H]flumazenil from GABAA in rat cortical tissue
Rattus norvegicus [2] = species on record: Rattus norvegicus; test: Selectivity ratio of Ki for rat GABAA alpha-2-beta-3-gamma-2 receptor to Ki for GABAA alpha-1-beta-3-gamma-2 receptor
Rattus norvegicus [3] = species on record: Rattus norvegicus; test: Selectivity ratio of Ki for rat GABAA alpha-3-beta-3-gamma-2 receptor to Ki for GABAA alpha-1-beta-3-gamma-2 receptor
[4] = biological target: GABA A receptor alpha-5/beta-3/gamma-2 (Rattus norvegicus, UniProt P18508+P19969+P63079); test: Displacement of [3H]flumazenil in rat GABAA alpha-5-beta-3-gamma-2 receptor expressed in HEK293 cells; format: cell-based
GABA A receptor alpha-5/beta-3/gamma-2, sequence (P18508 whole entry): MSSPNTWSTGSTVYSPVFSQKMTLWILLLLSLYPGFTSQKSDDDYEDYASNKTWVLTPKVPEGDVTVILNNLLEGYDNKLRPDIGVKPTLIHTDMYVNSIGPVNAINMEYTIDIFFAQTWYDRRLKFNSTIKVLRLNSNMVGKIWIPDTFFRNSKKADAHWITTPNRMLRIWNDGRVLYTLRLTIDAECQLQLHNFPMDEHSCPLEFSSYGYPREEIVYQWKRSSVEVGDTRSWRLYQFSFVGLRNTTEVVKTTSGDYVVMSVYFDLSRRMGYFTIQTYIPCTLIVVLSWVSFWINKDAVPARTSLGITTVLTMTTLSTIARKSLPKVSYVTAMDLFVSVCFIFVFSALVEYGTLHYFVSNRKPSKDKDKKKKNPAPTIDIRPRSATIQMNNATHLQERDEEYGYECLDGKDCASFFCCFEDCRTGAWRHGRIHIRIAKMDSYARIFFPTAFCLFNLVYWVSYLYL
GABA A receptor alpha-5/beta-3/gamma-2, sequence (P19969 whole entry): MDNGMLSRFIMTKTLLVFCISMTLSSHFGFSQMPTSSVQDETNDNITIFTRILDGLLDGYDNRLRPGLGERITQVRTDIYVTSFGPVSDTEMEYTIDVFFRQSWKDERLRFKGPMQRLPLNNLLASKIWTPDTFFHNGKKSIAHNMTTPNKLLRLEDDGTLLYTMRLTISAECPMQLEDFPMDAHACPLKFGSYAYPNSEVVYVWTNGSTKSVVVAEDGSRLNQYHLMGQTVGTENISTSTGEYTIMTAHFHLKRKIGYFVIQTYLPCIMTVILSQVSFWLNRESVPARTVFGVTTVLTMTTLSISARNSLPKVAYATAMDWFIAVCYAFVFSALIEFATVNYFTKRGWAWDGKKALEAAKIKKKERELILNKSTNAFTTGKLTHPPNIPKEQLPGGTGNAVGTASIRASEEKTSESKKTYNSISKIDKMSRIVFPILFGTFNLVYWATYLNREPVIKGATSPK
GABA A receptor alpha-5/beta-3/gamma-2, sequence (P63079 whole entry): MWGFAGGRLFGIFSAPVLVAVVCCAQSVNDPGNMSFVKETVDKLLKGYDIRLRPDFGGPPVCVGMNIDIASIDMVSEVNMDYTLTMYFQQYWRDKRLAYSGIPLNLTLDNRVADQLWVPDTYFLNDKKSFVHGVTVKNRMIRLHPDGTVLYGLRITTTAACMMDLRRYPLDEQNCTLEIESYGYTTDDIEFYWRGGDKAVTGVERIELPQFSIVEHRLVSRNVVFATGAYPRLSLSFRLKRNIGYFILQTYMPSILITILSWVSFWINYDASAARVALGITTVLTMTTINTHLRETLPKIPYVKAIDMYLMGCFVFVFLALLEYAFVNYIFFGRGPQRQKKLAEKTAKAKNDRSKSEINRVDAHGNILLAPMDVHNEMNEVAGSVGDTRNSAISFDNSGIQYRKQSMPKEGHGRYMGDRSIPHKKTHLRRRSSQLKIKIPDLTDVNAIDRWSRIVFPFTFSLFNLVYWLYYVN

[5] = biological target: GABA-A receptor; alpha-1/beta-3/gamma-2 (Rattus norvegicus); test: Displacement of [3H]flumazenil in rat GABAA alpha-1-beta-3-gamma-2 receptor expressed in HEK293 cells
[6] = biological target: GABA-A receptor; alpha-2/beta-3/gamma-2 (Rattus norvegicus); test: Displacement of [3H]flumazenil in rat GABAA alpha-2-beta-3-gamma-2 receptor expressed in HEK293 cells
[7] = biological target: Gamma-aminobutyric acid receptor subunit alpha-3 (Rattus norvegicus, UniProt P18508+P20236+P63079); test: Displacement of [3H]flumazenil in rat GABAA alpha-3-beta-3-gamma-2 receptor expressed in HEK293 cells; format: cell-based
Gamma-aminobutyric acid receptor subunit alpha-3, sequence (P20236 whole entry, one chain of several): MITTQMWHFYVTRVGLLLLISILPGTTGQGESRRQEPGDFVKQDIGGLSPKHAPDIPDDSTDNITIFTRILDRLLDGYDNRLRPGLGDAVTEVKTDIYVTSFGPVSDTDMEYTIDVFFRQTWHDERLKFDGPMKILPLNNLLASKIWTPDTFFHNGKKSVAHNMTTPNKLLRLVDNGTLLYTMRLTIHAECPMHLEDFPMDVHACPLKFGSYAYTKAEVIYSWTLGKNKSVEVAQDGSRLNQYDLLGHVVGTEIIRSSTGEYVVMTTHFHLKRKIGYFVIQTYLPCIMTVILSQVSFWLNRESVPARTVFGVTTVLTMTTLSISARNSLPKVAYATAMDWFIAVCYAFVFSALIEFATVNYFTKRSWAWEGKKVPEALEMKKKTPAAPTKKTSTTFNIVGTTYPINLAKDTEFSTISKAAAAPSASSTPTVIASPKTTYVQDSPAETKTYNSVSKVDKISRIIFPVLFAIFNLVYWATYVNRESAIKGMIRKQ

Compound | Ki [1] [nM] | Selectivity ratio (Rattus norvegicus [2]) | Selectivity ratio (Rattus norvegicus [3]) | Ki [4] [nM] | Ki [5] [nM] | Ki [6] [nM] | Ki [7] [nM]
Cc1ccc2nc(-c3cc(Cc4ccccc4)ccc3O)cc(N3CCOCC3)c2c1 | 400 |  |  |  |  |  | 
Cc1ccc2oc(-c3cc(Br)ccc3O)cc(=O)c2c1 | 0.9 | 5 | 8 |  |  |  | 
Cc1ccc2nc(-c3cc(Br)ccc3O)cc(N3CCOCC3)c2c1 | 840 |  |  |  |  |  | 
Cc1ccc2oc(-c3cc(Cc4ccccc4)ccc3O)cc(=O)c2c1 | 0.6 |  |  | 2.4 | 0.8 | 19 | 11
COc1ccc(Br)cc1-c1cc(=O)c2cc(C)ccc2o1 | > 1500 |  |  |  |  |  | 
Cc1ccc2nc(-c3cc(Br)ccc3O)cc(O)c2c1 |  |  |  |  | 39 | 120 | 99
Cc1ccc2c(c1)c(=O)cc(-c1cc(Br)ccc1O)n2C | 1100 | 5 | 8 |  |  |  | 

More lines, now with the values ahead:

Ki [1] [nM] | Selectivity ratio (Rattus norvegicus [2]) | Selectivity ratio (Rattus norvegicus [3]) | Ki [4] [nM] | Ki [5] [nM] | Ki [6] [nM] | Ki [7] [nM] | Compound
730 |  |  |  |  |  |  | COc1ccc(Br)cc1-c1cc(=O)c2cc(C)ccc2[nH]1
1200 |  |  |  |  |  |  | CCc1ccc2[nH]c(-c3ccccc3)cc(=O)c2c1
180 |  |  |  |  |  |  | CCc1ccc2oc(-c3ccccc3)cc(=O)c2c1
2 | 5 | 8 | 7.3 | 1.2 | 18 | 31 | Cc1ccc2[nH]c(-c3cc(Cc4ccccc4)ccc3O)cc(=O)c2c1
22 | 5 | 8 |  |  |  |  | Cc1ccc2[nH]c(-c3cc(Br)ccc3O)cc(=O)c2c1
